Assay results as given in publication PMC4884932, “Selective brain penetrable Nurr1 transactivator for treating Parkinson's disease” (Oncotarget, 2016).

Columns and labels:
PPARγ = PPARγ (Homo sapiens, UniProt P37231); conditions: at physiological concentrations
Source text: (§1) For RXR: CV-1 cells were transfected with rCRBPII/RXRE-tk-Luc reporter gene and an expression vector for RXRα, β, or γ. For RAR: CV-1 cells were transfected with ERE-tk-Luc reporter gene and an expression vector for the appropriate ER-RARα, β, or γ. ER-RARs are fusion proteins, composed of the estrogen receptor (ER) DNA binding domain fused to the ligand binding domain of RARs. This system eliminates interference by the low level of endogenous RAR activity in CV1 cells as the readout comes only from the transfected ER-RAR. For PPARγ: CV-1 cells were transfected with 3x(rAOX/DR1)-tk-Luc reporter gene and an expression vector for PPARγ; for FXR: CV-1 cells were transfected with 3x(IBABP/IR1)-tk-Luc reporter gene and vectors for FXR and RXRα; for LXR: CV-1 cells were transfected with 3x(PLTP/LXRE)-tk-Luc reporter gene with vectors for LXRα or LXRβ. For Nurr1: COS7 cells were transfected with 3xNBRE-tk-luc reporter gene and full length Nurr1 with or without full-length RXRα plasmid. […] Luciferase data were normalized to co-transfected β-gal activity. Luciferase activity is expressed as percent of maximal activity obtained using specific agonists 9-cis-retinoic acid (RXR), retinoic acid (RAR), rosiglitazone (PPARγ), GW4064 (FXR), T0901317 (LXR).

RXRβ = RXRβ (Homo sapiens, UniProt P28702); conditions: CV-1 cells, 20h
Source text: as §1

Nurr1 = target: T1, Nurr1 (Homo sapiens, UniProt P43354); experiment: Nurr1 transactivation assay in COS7 cells without RXRα; format: cell-based; conditions: Nurr1 in the absence of RXRα
T1 construct: full length Nurr1 with or without full-length RXRα plasmid; expressed in transfected cells; host or cells: COS7
Source text: as §1

[1] = system: tyrosine hydroxylase (TH)-positive DA neurons; experiment: DA neuron survival in primary ventral midbrain (VMB) culture; format: cell-based, mouse; conditions: primary VMB neurons, dose-dependent
Protocol: Ventral midbrain (VMB) from E13.5-14.5 C57BL/6 mouse embryos were dissected, triturated and plated on poly-D-lysine coated 12 well plates or glass coverslips with the serum-free chemically-defined Neurobasal medium, supplemented with 2% B27, 0.5mM L-glutamine, 50I.U./ml penicillin and 50μg/ml streptomycin (Gibco-BRL). […] For each time point, cells were washed once with phosphate buffered saline and fixed with 4% paraformaldehyde for TH immunofluorescent staining. For cell counting, 10 frames were randomly captured from each well using a Leica fluorescent microscope and a minimum of four replicates for each dose and each time point were analyzed for each experiment.

[2] = Plasma protein binding by equilibrium dialysis, human plasma; format: in vitro ADME; conditions: K3EDTA control plasma, 37°C, read-out: plasma protein binding, bound (converted)
Protocol: (§2) SD male rats were grouped into four groups: vehicle, 1mg/kg/day, 3mg/kg/day and 10mg/kg/day. Rats were treated with the designated dose by daily gavage. Acute plasma PK was conducted on day one and acute-on-chronic plasma PK was conducted on day 24. Pharmacokinetic assessment was conducted by collecting of blood at baseline (prior gavage), 0.25, 0.5, 1, 2, 4, 8, 12 and 24h post gavage. […] The spiked plasma was dialyzed at 37°C against an isotonic sodium phosphate buffer to achieve equilibrium. At the end of dialysis, the plasma and buffer level of IRX4204 were quantified by LC/MS/MS.

[3] = Plasma protein binding by equilibrium dialysis, rat plasma; format: in vitro ADME; conditions: K3EDTA control plasma, 37°C, read-out: plasma protein binding, bound (converted)
Protocol: as §2

6-OHDA lesioned rats [4] = experiment: Cylinder test in 6-OHDA lesioned rat model of PD; format: in vivo; conditions: 10mg/kg/day gavage for three weeks, day 17 and day 24 post-lesion, p < 0.05
Protocol: (§3) All surgical procedures were performed under general anesthesia with ketamine/xylazine. 2μl 6-OHDA (20 mg/ml in 0.02% ascorbic acid) was stereotaxically injected into the right striatum of male SD rats. Lesion coordinates were set according to bregma and dura in mm: ML-3.7; AP-1.0; DV-5.5. The injection rate was 2μl/5 min and the injecting needle was left for 2 minutes after injection to avoid back flow. Apomorphine-induced rotations (see below) were assessed three days post-lesion and rats with ≥ 30 full contralateral rotation/30 minutes were included in the study.
(§4) Rats were randomly grouped into vehicle control group (n = 11) and drug treatment group (n = 10). […] The control group received DMSO/corn oil (vehicle). The treatment continued for three weeks.
The cylinder test was used to test for forelimb use asymmetry. Rats to be tested were placed individually in a glass cylinder (21 cm diameter, 34 cm height) and wall exploration was recorded for five minutes. Wall exploration was expressed in terms of the percentage of impaired (right) forelimb vs. total (right+left+both) usage. Paw placement test was performed before the lesion for baseline, three days post lesion and two weeks and three weeks following treatment.

6-OHDA lesioned rats [5] = experiment: Apomorphine-induced rotations in 6-OHDA lesioned rat model of PD; format: in vivo; conditions: 10mg/kg/day gavage for three weeks, day 24 post-lesion
Protocol: as §3, §4
Apomorphine (APO)-induced rotations were performed as described by Fisher et al.. Briefly, immediately after apomorphine injection (0.5 mg/kg body weight), animals were placed in an open area. A camera monitored the animal behavior and computerized software analyzed the number of contralateral and ipsilateral rotations in 30 minutes testing. Rotations were assessed three days post-lesion and after three weeks of treatment (24 days post-lesion). Data were expressed as average contralateral turns per minute.

6-OHDA lesioned rats [6] = experiment: Dopamine and metabolites in the striatum by HPLC, 6-OHDA lesioned rats; format: in vivo, rat; conditions: 10mg/kg/day gavage for three weeks, p < 0.01
Protocol: as §3
Rats were randomly grouped into vehicle control group (n = 11) and drug treatment group (n = 10). […] The control group received DMSO/corn oil (vehicle). […]
The left and right striatum were isolated and homogenized with artificial cerebrospinal fluid and centrifuged at x10,000 g for 15 minutes. Protein content of the supernatant was measured by Bradford assay (Bio-Rad). Dopamine, HVA and DOPAC were measured using an isocratic HPLC system with electrochemical detection, consisting of a pump (ESA model 582 [ESA Chelmsford, MA]), automatic injector (ESA model 542 Autosampler), and a Coulochem III detector (ESA) in conjunction with a guard cell (ESA model 5020) and an analytical cell (ESA model 5014B). […] Data were collected and analyzed using the EZStart software (Agilent Technologies, Santa Clara, CA). […]

RXRβ, sequence (P28702 whole entry): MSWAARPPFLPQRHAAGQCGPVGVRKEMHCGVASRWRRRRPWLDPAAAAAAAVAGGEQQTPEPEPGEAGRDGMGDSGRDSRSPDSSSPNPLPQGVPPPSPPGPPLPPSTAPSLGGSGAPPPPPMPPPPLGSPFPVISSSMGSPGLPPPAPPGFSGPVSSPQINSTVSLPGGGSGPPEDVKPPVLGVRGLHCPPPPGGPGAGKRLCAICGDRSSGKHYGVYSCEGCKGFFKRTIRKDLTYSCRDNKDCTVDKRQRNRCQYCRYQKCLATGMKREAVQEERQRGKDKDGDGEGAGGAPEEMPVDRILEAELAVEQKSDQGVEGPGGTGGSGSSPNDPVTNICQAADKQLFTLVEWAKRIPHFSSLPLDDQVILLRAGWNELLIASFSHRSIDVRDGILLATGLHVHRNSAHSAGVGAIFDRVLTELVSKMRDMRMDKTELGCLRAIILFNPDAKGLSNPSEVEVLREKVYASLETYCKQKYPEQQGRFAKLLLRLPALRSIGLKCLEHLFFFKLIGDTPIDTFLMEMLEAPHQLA
PPARγ, sequence (P37231 whole entry, species assumed, the tested form may be a part): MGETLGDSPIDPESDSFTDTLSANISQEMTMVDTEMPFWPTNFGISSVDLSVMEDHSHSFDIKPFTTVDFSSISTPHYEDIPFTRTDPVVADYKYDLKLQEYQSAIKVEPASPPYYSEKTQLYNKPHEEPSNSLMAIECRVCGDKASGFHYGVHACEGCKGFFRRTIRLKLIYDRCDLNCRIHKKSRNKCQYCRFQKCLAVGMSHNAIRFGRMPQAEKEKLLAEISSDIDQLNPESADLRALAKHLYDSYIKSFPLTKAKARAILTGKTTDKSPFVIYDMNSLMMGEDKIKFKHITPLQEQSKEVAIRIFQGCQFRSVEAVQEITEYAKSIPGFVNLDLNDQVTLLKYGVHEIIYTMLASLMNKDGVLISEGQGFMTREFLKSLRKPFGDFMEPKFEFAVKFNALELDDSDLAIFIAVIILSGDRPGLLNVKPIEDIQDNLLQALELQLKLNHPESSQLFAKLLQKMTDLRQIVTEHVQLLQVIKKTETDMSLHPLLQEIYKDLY
PPARγ, sequence (P19793 whole entry partner, species assumed, the tested form may be a part): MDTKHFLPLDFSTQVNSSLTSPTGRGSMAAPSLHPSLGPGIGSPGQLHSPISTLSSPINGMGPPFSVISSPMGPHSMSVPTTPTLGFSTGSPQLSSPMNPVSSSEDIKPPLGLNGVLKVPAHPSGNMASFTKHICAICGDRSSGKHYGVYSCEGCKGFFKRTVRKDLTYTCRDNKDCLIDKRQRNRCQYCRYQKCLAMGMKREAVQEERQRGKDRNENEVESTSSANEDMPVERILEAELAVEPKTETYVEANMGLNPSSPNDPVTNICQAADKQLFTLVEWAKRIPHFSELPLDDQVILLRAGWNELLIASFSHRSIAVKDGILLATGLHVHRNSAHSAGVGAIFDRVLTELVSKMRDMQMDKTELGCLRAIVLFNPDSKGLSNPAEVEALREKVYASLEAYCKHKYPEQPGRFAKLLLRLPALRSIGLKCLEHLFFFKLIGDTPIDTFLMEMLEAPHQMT
T1 sequence (P43354 whole entry, species assumed): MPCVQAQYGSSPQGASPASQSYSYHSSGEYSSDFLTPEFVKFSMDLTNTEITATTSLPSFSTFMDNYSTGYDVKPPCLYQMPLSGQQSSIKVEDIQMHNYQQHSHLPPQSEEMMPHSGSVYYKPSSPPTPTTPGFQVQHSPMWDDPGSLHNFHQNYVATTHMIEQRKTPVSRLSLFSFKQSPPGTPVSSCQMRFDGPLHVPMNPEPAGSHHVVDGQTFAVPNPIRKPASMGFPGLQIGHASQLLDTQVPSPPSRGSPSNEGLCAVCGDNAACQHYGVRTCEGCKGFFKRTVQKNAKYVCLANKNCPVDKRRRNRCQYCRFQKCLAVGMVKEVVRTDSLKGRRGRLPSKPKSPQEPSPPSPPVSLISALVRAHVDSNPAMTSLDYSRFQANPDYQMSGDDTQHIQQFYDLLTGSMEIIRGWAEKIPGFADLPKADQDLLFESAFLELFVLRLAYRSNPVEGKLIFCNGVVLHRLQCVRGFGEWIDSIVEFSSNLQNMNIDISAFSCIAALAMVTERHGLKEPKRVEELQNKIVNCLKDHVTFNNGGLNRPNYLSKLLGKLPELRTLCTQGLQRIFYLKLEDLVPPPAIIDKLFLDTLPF

activation of RXR heterodimer of PPARγ (PPARγ): does not activate
concentration that fully activates RXRβ (RXRβ): 1 nM
concentration that partially activates RXRβ (RXRβ): 0.1 nM
reporter gene activation (Nurr1): base level of reporter gene activation
fraction unbound at 1 ug/ml [2]: 0.0064
fraction unbound at 1 ug/ml [3]: 0.0249
Structure (SMILES): CC(/C=C/[C@@H]1C[C@]1(C)c1ccc2c(c1)C(C)(C)CCC2(C)C)=C\C(=O)O [IRX4204]
survival of TH-positive DA neurons [1]: increased survival
spontaneous forelimb use in the cylinder test (6-OHDA lesioned rats [4]): significantly improved spontaneous forelimb use to pre-lesion levels
APO-induced contralateral rotations versus baseline (6-OHDA lesioned rats [5]): did not differ significantly from baseline
striatal dopamine loss in the lesioned side (6-OHDA lesioned rats [6]): much greater in the vehicle-treated group relative to the IRX4204 group
